Test results as given in patent US8796474.

Conditions: from CC[C@@H](O)C(C)=C=C[C@@H](OCc1ccccc1)[C@H](C)CC(C)=C=C[C@H](OCc1ccccc1)[C@@H](C)C(=O)O; ester bond; 2,4,6-trichlorobenzoyl chloride / TEA / DMAP (Yamaguchi); toluene; 3.18 mM; 80.0 °C; 8.0 h

Molecule `CC[C@H]1OC(=O)[C@H](C)[C@@H](OCc2ccccc2)C=C=C(C)C[C@@H](C)[C@H](OCc2ccccc2)C=C=C1C` has a ring closure, yield of all isomers of 64%.
